Key:
[1] = DRUGMATRIX: Glutamate, Kainate radioligand binding (ligand: [3H] Kainic acid); type: cell membranes, Rattus norvegicus, Wistar, Brain, Membrane; settings: Not Active = under 50% inhibition at 10 µM
[2] = biological target: Protein phosphatase 3 catalytic subunit alpha (Homo sapiens, UniProt Q08209); design: species or system Escherichia coli;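 also: inhibition of calcineurin (PP2B) enzyme activity, measured with DiFMUP as the substrate; in other assays of this panel Not Active means under 50% inhibition at 10 µM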
[3] = DRUGMATRIX: Calcium Channel Type L, Benzothiazepine radioligand binding (ligand: [3H] Diltiazem); type: cell membranes, Rattus norvegicus, Wistar, Brain, Membrane; settings: Not Active = under 50% inhibition at 10 µM
[4] = biological target: Beta-1 adrenergic receptor (Homo sapiens, UniProt P08588); test: DRUGMATRIX: Adrenergic beta1 radioligand binding (ligand: [125I] Cyanopindolol); type: cell membranes, CHO-K1, Membrane; settings: cho-k1; Not Active = under 50% inhibition at 10 µM
Sequence of Beta-1 adrenergic receptor (P08588 whole entry): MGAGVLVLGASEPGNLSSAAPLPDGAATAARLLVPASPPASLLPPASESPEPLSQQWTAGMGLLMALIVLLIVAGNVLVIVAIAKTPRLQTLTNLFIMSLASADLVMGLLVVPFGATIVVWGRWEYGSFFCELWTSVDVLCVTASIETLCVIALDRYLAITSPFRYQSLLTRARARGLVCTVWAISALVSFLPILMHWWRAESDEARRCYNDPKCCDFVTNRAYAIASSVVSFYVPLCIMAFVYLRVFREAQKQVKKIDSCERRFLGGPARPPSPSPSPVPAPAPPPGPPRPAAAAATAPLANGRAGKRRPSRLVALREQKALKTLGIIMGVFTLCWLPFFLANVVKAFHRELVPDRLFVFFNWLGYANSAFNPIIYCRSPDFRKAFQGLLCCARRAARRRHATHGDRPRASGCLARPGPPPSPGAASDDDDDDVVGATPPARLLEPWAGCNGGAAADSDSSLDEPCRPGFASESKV

[5] = biological target: T1, Androgen receptor (Rattus norvegicus, UniProt P15207); also: in other assays of this panel Not Active means under 50% inhibition at 10 µM
T1 sequence (P15207 whole entry): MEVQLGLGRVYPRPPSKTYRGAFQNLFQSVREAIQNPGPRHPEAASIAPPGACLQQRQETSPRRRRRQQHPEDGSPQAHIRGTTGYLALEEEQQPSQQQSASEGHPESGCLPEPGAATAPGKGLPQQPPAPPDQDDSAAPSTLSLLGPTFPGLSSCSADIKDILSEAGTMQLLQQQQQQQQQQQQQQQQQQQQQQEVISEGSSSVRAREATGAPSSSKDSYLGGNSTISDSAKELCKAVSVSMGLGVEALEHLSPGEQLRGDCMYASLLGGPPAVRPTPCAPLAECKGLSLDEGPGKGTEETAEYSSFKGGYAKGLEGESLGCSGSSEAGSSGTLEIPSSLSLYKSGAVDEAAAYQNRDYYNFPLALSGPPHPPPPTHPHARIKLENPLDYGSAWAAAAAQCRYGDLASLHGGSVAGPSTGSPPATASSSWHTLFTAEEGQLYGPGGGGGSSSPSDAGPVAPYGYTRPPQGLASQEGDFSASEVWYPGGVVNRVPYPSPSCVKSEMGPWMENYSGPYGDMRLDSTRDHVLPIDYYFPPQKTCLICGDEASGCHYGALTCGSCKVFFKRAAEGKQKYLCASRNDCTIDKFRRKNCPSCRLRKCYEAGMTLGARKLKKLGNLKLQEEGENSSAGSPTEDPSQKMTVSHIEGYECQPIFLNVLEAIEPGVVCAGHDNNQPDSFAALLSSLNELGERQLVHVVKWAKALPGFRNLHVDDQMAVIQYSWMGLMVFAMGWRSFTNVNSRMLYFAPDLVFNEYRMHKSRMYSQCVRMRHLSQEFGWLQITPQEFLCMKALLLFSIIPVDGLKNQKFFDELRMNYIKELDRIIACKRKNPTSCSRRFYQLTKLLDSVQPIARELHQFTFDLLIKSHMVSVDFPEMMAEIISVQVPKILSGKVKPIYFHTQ

[6] = biological target: T2, Substance-K receptor (Homo sapiens, UniProt P21452); type: cell membranes, CHO, Membrane; settings: cho; also: in other assays of this panel Not Active means under 50% inhibition at 10 µM
T2 sequence (P21452 whole entry): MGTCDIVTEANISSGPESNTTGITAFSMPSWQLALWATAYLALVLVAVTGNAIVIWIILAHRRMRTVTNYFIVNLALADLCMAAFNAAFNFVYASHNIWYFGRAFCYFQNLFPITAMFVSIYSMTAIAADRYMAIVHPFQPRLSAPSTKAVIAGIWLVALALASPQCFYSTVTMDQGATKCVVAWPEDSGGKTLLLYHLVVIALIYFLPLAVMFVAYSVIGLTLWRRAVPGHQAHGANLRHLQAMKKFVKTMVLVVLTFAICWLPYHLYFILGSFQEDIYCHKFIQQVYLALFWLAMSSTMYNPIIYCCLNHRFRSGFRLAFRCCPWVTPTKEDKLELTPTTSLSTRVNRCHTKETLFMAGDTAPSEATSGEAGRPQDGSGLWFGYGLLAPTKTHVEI

[7] = biological target: Receptor tyrosine-protein kinase erbB-2 (Homo sapiens, UniProt P04626); test: biochemical; type: cell-based, Insect cells; settings: insect cells;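 also: inhibition of HER2 kinase enzyme activity, measured with Poly(Glu:Tyr) as the phosphorylation substrate; in other assays of this panel Not Active means under 50% inhibition at 10 µM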
[8] = biological target: T3, Muscarinic acetylcholine receptor M2 (Homo sapiens, UniProt P08172); type: cell membranes, CHO-K1, Membrane; settings: cho-k1; also: in other assays of this panel Not Active means under 50% inhibition at 10 µM
T3 sequence (P08172 whole entry): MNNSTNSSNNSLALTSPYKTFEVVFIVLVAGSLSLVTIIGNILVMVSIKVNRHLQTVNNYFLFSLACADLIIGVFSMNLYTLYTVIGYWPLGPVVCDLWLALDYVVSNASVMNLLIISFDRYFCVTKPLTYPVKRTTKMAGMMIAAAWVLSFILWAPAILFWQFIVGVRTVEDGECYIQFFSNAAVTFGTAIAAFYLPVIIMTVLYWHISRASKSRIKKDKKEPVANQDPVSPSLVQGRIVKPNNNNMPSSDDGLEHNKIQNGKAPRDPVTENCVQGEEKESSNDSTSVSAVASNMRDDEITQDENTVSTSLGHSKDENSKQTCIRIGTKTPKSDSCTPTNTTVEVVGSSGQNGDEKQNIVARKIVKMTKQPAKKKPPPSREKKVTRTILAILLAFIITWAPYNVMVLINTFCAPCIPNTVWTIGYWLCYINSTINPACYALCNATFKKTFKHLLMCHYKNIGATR

[9] = biological target: T4, Cysteinyl leukotriene receptor 1 (Homo sapiens, UniProt Q9Y271); type: cell membranes, CHO-K1, Membrane; settings: cho-k1; also: in other assays of this panel Not Active means under 50% inhibition at 10 µM
T4 sequence (Q9Y271 whole entry): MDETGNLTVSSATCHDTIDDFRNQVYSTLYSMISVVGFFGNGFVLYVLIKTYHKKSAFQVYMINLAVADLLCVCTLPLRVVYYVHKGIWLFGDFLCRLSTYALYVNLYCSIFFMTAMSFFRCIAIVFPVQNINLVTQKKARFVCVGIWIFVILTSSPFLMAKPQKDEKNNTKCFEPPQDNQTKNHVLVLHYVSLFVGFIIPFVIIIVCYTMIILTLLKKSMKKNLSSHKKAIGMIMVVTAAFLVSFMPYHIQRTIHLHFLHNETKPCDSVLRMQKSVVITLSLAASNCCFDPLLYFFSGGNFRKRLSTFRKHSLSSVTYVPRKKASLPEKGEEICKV

[10] = biological target: 5-hydroxytryptamine receptor 4 (Cavia porcellus, UniProt O70528); type: cell membranes, Dunkin-Hartley, Striatum, Membrane; also: in other assays of this panel Not Active means under 50% inhibition at 10 µM
Sequence of 5-hydroxytryptamine receptor 4 (O70528 whole entry): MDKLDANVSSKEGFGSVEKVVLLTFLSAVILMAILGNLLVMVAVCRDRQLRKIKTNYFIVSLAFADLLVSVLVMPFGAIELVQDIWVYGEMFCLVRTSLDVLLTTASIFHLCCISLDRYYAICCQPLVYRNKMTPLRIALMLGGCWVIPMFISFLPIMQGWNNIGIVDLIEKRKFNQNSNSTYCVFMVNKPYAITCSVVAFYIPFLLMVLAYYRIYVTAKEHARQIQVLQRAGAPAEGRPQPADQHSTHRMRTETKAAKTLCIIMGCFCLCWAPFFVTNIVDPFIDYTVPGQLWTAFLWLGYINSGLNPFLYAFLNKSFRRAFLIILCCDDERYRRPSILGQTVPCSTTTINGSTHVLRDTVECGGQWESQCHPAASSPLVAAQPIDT

COc1ccc2c(c1)c(CC(=O)OCC(=O)O)c(C)n2C(=O)c1ccc(Cl)cc1 [ACEMETACIN]
Not Active: IC50 [1] | Ki [1] | IC50 [2] | IC50 [3] | Ki [3] | IC50 [4] | IC50 [5] | IC50 [6] | IC50 [7] | IC50 [8] | IC50 [9] | IC50 [10]

NCC[C@H](O)C(=O)N[C@@H]1C[C@H](N)[C@@H](O[C@H]2O[C@H](CN)[C@@H](O)[C@H](O)[C@H]2O)[C@H](O)[C@H]1O[C@H]1O[C@H](CO)[C@@H](O)[C@H](N)[C@H]1O [AMIKACIN]
Not Active: IC50 [1] | Ki [1] | IC50 [2] | IC50 [3] | Ki [3] | IC50 [4] | IC50 [5] | IC50 [6] | IC50 [7] | IC50 [8] | IC50 [9] | IC50 [10]

C=C1C(=O)O[C@@H]2C3O[C@]3(C)CC/C=C(\C)CC[C@@H]12 (some centres not stated)
Not Active: IC50 [1] | Ki [1] | IC50 [2] | IC50 [3] | Ki [3] | IC50 [4] | IC50 [5] | IC50 [6] | IC50 [7] | IC50 [8] | IC50 [9] | IC50 [10]

OCc1ccccc1 [BENZYL ALCOHOL]
Not Active: IC50 [1] | Ki [1] | IC50 [2] | IC50 [3] | Ki [3] | IC50 [4] | IC50 [5] | IC50 [6] | IC50 [7] | IC50 [8] | IC50 [9] | IC50 [10]

N#C[C@H](O[C@@H]1O[C@H](CO[C@@H]2O[C@H](CO)[C@@H](O)[C@H](O)[C@H]2O)[C@@H](O)[C@H](O)[C@H]1O)c1ccccc1 [AMYGDALIN]
Not Active: IC50 [1] | Ki [1] | IC50 [2] | IC50 [3] | Ki [3] | IC50 [4] | IC50 [5] | IC50 [6] | IC50 [7] | IC50 [8] | IC50 [9] | IC50 [10]

CC[C@@]1(O)C(=O)OCc2c1cc1n(c2=O)Cc2cc3ccccc3nc2-1 [CAMPTOTHECIN]
Not Active: IC50 [1] | Ki [1] | IC50 [2] | IC50 [3] | Ki [3] | IC50 [4] | IC50 [5] | IC50 [6] | IC50 [7] | IC50 [8] | IC50 [9] | IC50 [10]

Brc1ccccc1 [BROMOBENZENE]
Not Active: IC50 [1] | Ki [1] | IC50 [2] | IC50 [3] | Ki [3] | IC50 [4] | IC50 [5] | IC50 [6] | IC50 [7] | IC50 [8] | IC50 [9] | IC50 [10]

C=C(C)[C@@H]1[C@H]2OC(=O)[C@@H]1[C@]1(O)C[C@H]3O[C@]34C(=O)O[C@H]2[C@]14C [PICROTOXININ]
Not Active: IC50 [1] | Ki [1] | IC50 [2] | IC50 [3] | Ki [3] | IC50 [4] | IC50 [5] | IC50 [6] | IC50 [7] | IC50 [8] | IC50 [9] | IC50 [10]

COCc1c(C(C)C)nc(C(C)C)c(/C=C/[C@@H](O)C[C@@H](O)CC(=O)O)c1-c1ccc(F)cc1 [CERIVASTATIN]
Not Active: IC50 [1] | Ki [1] | IC50 [2] | IC50 [3] | Ki [3] | IC50 [4] | IC50 [5] | IC50 [6] | IC50 [7] | IC50 [8] | IC50 [9] | IC50 [10]

CC1(C)S[C@@H]2[C@H](NC(=O)[C@H](N)c3ccc(O)cc3)C(=O)N2[C@H]1C(=O)O [AMOXICILLIN]
Not Active: IC50 [1] | Ki [1] | IC50 [2] | IC50 [3] | Ki [3] | IC50 [4] | IC50 [5] | IC50 [6] | IC50 [7] | IC50 [8] | IC50 [9] | IC50 [10]

OXALIPLATIN
Not Active: IC50 [1] | Ki [1] | IC50 [2] | Ki [2] | IC50 [3] | Ki [3] | IC50 [4] | Ki [4] | IC50 [5] | Ki [5] | IC50 [6] | Ki [6] | IC50 [7] | Ki [7] | IC50 [8] | Ki [8] | IC50 [9] | Ki [9] | IC50 [10] | Ki [10]

CCc1cccc2c3c([nH]c12)C(CC)(CC(=O)O)OCC3 (configuration not stated) [ETODOLAC]
Not Active: IC50 [1] | Ki [1] | IC50 [2] | IC50 [3] | Ki [3] | IC50 [4] | IC50 [5] | IC50 [6] | IC50 [7] | IC50 [8] | IC50 [9] | IC50 [10]

Reference: ChEMBL document CHEMBL1909046, “DrugMatrix in vitro pharmacology data”
